Assay results published in the NIST ThermoML archive (doi:10.1016/j.jct.2019.04.023).
± gives the expanded uncertainty stated by the source.

Assay: xn = mol fraction of the nth substance listed
Details: 101 kPa, Liquid; for viscosity: Falling or rolling sphere viscometry; for mass density: Vibrating tube method

CC[N+](CC)=C(N(C)C)N(C)C.O=S(=O)([N-]S(=O)(=O)C(F)(F)F)C(F)(F)F + CCO
Details | mass density [kg/m3] | viscosity [mPa·s]
293.15 K, x1 = 0.0995 | 1018.97 ± 2.9 | 2.764 ± 0.12
293.15 K, x1 = 0.1987 | 1136.2 ± 3.2 | 5.261 ± 0.23
293.15 K, x1 = 0.299 | 1207.9 ± 3.2 | 9.359 ± 0.41
293.15 K, x1 = 0.3991 | 1256.11 ± 3.2 | 13.81 ± 0.61
293.15 K, x1 = 0.5075 | 1293.66 ± 3.2 | 20.03 ± 0.9
293.15 K, x1 = 0.5956 | 1316.86 ± 2.9 | 26.34 ± 1.1
293.15 K, x1 = 0.7065 | 1339.41 ± 2.8 | 36.42 ± 1.5
293.15 K, x1 = 0.7983 | 1353.71 ± 2.8 | 47.01 ± 1.9
293.15 K, x1 = 0.9106 | 1367.67 ± 2.8 | 62.04 ± 2.5
293.15 K, x1 = 0.951 | 1372.2 ± 2.8 | 70.47 ± 2.9
293.15 K, x1 = 1 | 1377.86 ± 2.8 | 81.02 ± 3.5
298.15 K, x1 = 0.0995 | 1014.27 ± 2.9 | 2.453 ± 0.1
298.15 K, x1 = 0.1987 | 1131.43 ± 3.2 | 4.596 ± 0.2
298.15 K, x1 = 0.299 | 1203.13 ± 3.2 | 8.052 ± 0.35
298.15 K, x1 = 0.3991 | 1251.35 ± 3.2 | 11.82 ± 0.52
298.15 K, x1 = 0.5075 | 1288.9 ± 3.2 | 16.96 ± 0.76
298.15 K, x1 = 0.5956 | 1312.11 ± 2.9 | 22.12 ± 0.96
298.15 K, x1 = 0.7065 | 1334.68 ± 2.8 | 30.22 ± 1.3
298.15 K, x1 = 0.7983 | 1348.98 ± 2.8 | 38.69 ± 1.6
298.15 K, x1 = 0.9106 | 1362.96 ± 2.8 | 50.44 ± 2
298.15 K, x1 = 0.951 | 1367.5 ± 2.8 | 56.94 ± 2.3
298.15 K, x1 = 1 | 1373.16 ± 2.8 | 65.01 ± 2.7
303.15 K, x1 = 0.0995 | 1009.56 ± 2.9 | 2.19 ± 0.091
303.15 K, x1 = 0.1987 | 1126.67 ± 3.2 | 4.044 ± 0.17
303.15 K, x1 = 0.299 | 1198.38 ± 3.2 | 6.99 ± 0.3
303.15 K, x1 = 0.3991 | 1246.63 ± 3.2 | 10.23 ± 0.45
303.15 K, x1 = 0.5075 | 1284.19 ± 3.2 | 14.53 ± 0.65
303.15 K, x1 = 0.5956 | 1307.39 ± 2.9 | 18.83 ± 0.81
303.15 K, x1 = 0.7065 | 1329.99 ± 2.8 | 25.47 ± 1.1
303.15 K, x1 = 0.7983 | 1344.3 ± 2.7 | 32.25 ± 1.3
303.15 K, x1 = 0.9106 | 1358.3 ± 2.8 | 41.52 ± 1.7
303.15 K, x1 = 0.951 | 1362.85 ± 2.8 | 46.62 ± 1.9
303.15 K, x1 = 1 | 1368.51 ± 2.8 | 52.96 ± 2.1
308.15 K, x1 = 0.0995 | 1004.84 ± 2.9 | 1.964 ± 0.081
308.15 K, x1 = 0.1987 | 1121.91 ± 3.2 | 3.583 ± 0.15
308.15 K, x1 = 0.299 | 1193.62 ± 3.2 | 6.102 ± 0.27
308.15 K, x1 = 0.3991 | 1241.9 ± 3.2 | 8.914 ± 0.39
308.15 K, x1 = 0.5075 | 1279.48 ± 3.2 | 12.57 ± 0.56
308.15 K, x1 = 0.5956 | 1302.7 ± 2.8 | 16.19 ± 0.7
308.15 K, x1 = 0.7065 | 1325.33 ± 2.8 | 21.69 ± 0.91
308.15 K, x1 = 0.7983 | 1339.66 ± 2.7 | 27.29 ± 1.1
308.15 K, x1 = 0.9106 | 1353.68 ± 2.8 | 34.83 ± 1.4
308.15 K, x1 = 0.951 | 1358.24 ± 2.8 | 38.87 ± 1.6
308.15 K, x1 = 1 | 1363.9 ± 2.8 | 43.84 ± 1.8
313.15 K, x1 = 0.0995 | 1000.1 ± 2.9 | 1.773 ± 0.073
313.15 K, x1 = 0.1987 | 1117.13 ± 3.2 | 3.195 ± 0.14
313.15 K, x1 = 0.299 | 1188.87 ± 3.2 | 5.364 ± 0.23
313.15 K, x1 = 0.3991 | 1237.18 ± 3.2 | 7.841 ± 0.34
313.15 K, x1 = 0.5075 | 1274.79 ± 3.2 | 10.98 ± 0.48
313.15 K, x1 = 0.5956 | 1298.03 ± 2.8 | 14.08 ± 0.6
313.15 K, x1 = 0.7065 | 1320.7 ± 2.7 | 18.73 ± 0.78
313.15 K, x1 = 0.7983 | 1335.04 ± 2.7 | 23.34 ± 0.96
313.15 K, x1 = 0.9106 | 1349.09 ± 2.7 | 29.46 ± 1.2
313.15 K, x1 = 0.951 | 1353.66 ± 2.8 | 32.73 ± 1.3
313.15 K, x1 = 1 | 1359.32 ± 2.8 | 36.79 ± 1.5
318.15 K, x1 = 0.0995 | 995.32 ± 2.9 | 1.606 ± 0.067
318.15 K, x1 = 0.1987 | 1112.33 ± 3.2 | 2.864 ± 0.12
318.15 K, x1 = 0.299 | 1184.11 ± 3.2 | 4.758 ± 0.21
318.15 K, x1 = 0.3991 | 1232.46 ± 3.2 | 6.927 ± 0.3
318.15 K, x1 = 0.5075 | 1270.1 ± 3.1 | 9.662 ± 0.43
318.15 K, x1 = 0.5956 | 1293.36 ± 2.8 | 12.36 ± 0.53
318.15 K, x1 = 0.7065 | 1316.07 ± 2.7 | 16.3 ± 0.68
318.15 K, x1 = 0.7983 | 1330.44 ± 2.7 | 20.16 ± 0.83
318.15 K, x1 = 0.9106 | 1344.52 ± 2.7 | 25.22 ± 1
318.15 K, x1 = 0.951 | 1349.1 ± 2.7 | 27.9 ± 1.1
318.15 K, x1 = 1 | 1354.76 ± 2.8 | 31.25 ± 1.3
323.15 K, x1 = 0.0995 | 990.51 ± 2.9 | 1.463 ± 0.061
323.15 K, x1 = 0.1987 | 1107.51 ± 3.2 | 2.585 ± 0.11
323.15 K, x1 = 0.299 | 1179.33 ± 3.2 | 4.253 ± 0.18
323.15 K, x1 = 0.3991 | 1227.73 ± 3.2 | 6.158 ± 0.27
323.15 K, x1 = 0.5075 | 1265.41 ± 3.1 | 8.555 ± 0.38
323.15 K, x1 = 0.5956 | 1288.7 ± 2.8 | 10.91 ± 0.47
323.15 K, x1 = 0.7065 | 1311.45 ± 2.7 | 14.31 ± 0.6
323.15 K, x1 = 0.7983 | 1325.84 ± 2.7 | 17.59 ± 0.72
323.15 K, x1 = 0.9106 | 1339.96 ± 2.7 | 21.82 ± 0.89
323.15 K, x1 = 0.951 | 1344.55 ± 2.7 | 24.03 ± 0.98
323.15 K, x1 = 1 | 1350.21 ± 2.7 | 26.79 ± 1.1
